Assay results as given in patent US20250241878A1, “TYROSINE AND RESVERATROL DERIVATIVES AS NOVEL MODULATORS OF CELLULAR SERINE ADP-RIBOSYLATION” (UNIVERSITY OF SOUTH CAROLINA, priority 2022, published 2025).

Columns and labels:
PheRSα/β = PheRSα/β protein levels in cortical neurons (Western blot); type: cell-based, rat
Procedure: Primary cortical neurons were dissected from E18 Sprague Dawley rat pups in Hibernate E (BrainBits®) and dissociated using the Neural Tissue Dissociation kit (Miltenyi Biotec). Minced cortices were incubated in a pre-warmed enzyme mix at 37° C. for 15 min; tissues were then triturated and strained using a 40 μm cell strainer. After washing and centrifugation, neurons were seeded in 50 μg/ml poly-D-Lysine (Sigma-Aldrich) coated tissue culture plates. NBActive-1 medium (BrainBits®) supplemented with 100 U/ml of Penicillin-Streptomycin (Life Technologies™), 2 mM L-Glutamine (Life Technologies™), and 1×N21 supplement (R&D Systems™) was used as culture medium. For preparation of culture medium containing reduced tyrosine, the components of NBActive-1 medium were altered to combined with a reduced concentration of tyrosine, as mentioned in Table 1, and was supplemented with 100 U/ml of Penicillin-Streptomycin (Life Technologies™), 2 mM L-Glutamine (Life Technologies™), and 1×N21 supplement (R&D Systems™) to obtained culture medium with reduced tyrosine. Control (non-targeting), TyrRS, and PARP1 siRNAs were obtained from Invitrogen™ (#AM4635, s443, and s130207, respectively). Rat cortical neurons at 5 DIV were transfected with 75 nM control or TyrRS siRNA using DharmaFECT™ 3 Transfection Reagent. A second transfection was done two days later using 75 nM of TyrRS siRNA, followed by cell collection or assays after another 48 hr. For PARP1 siRNA, neurons at 7 DIV were transfected with 75 nM siRNA for both control and PARP1 siRNA.
(§1) Cultured neurons (DIV 9-10) were washed once with cold 1×PBS and lysed in cell lysis buffer (20 mM Tris-HCl (pH 7.5), 150 mM NaCl, 1 mM Na2EDTA, 1 mM EGTA, 1% Triton™, 2.5 mM sodium pyrophosphate, 1 mM beta-glycerophosphate, 1 mM Na3VO4, 1 μg/ml leupeptin supplemented with protease inhibitor). The lysates were centrifuged at 10,000 RPM for 15 mins at 4° C. to separate the chromatin-bound and soluble fractions. Lysates were quantified using Bio-Rad™ Protein Assay and equal amounts of protein were loaded onto a 4 to 12% gradient gel (Invitrogen™ NuPAGE™). Protein was transferred from the gel to 0.2 μm NC membranes at 25 V for 10 mins using transfer stacks (iBlot™ 2-Invitrogen™) and blocked with 5% non-fat milk in TBST (10 mM Tris-HCl pH 8.0, 150 mM NaCl, 0.01% Tween-20) for 1 hr before application of primary antibodies. Primary and secondary antibodies were incubated overnight at 4° C. and for 1 hr at room temperature, respectively. Immobilon® ECL Ultra Western HRP Substrate (WBULS0500, Millipore™) and a luminescent image analyzer (ChemiDoc™ Imaging System, Bio-Rad™) were used to detect proteins. Quantification of western blots was done using ImageJ (Version 1.53c).
The various compounds used for treatments and their stock concentrations in Table 4.

[1] = tested on: histone H3-Ser10-ADP-ribosylation; assay: Histone H3 serine-ADP-ribosylation immunoblot in cortical neurons; type: cell-based, rat; conditions: compound alone
Procedure: FIG. 5B presents representative immunoblots and quantification of histone H3-Ser10-ADP-ribosylation levels in cortical neurons (DIV9) using anti-H3-Ser10-ADPR antibody after treatment with D-tyrosine (2.5 and 5 mM).
as §1

γ-H2AX = γ-H2AX foci immunostaining in cortical neurons; type: cell-based, rat; conditions: for γ-H2AX (DNA damage marker): compound alone
Procedure: (§2) Cultured cortical neurons (DIV 9-10) were fixed in 4% formaldehyde for 15 min, followed by permeabilization and blocking for 30 min in 5% BSA (PBS) and 0.1% Tween™ 20 at room temperature. Incubation with primary antibodies was done at 4° C. overnight. The names and dilutions of the primary antibodies used for IF are described in Table 3. Secondary antibodies were incubated for 1 hr at room temperature. Secondary antibodies used were Alexa Fluor® 647 (anti-chicken), Alexa Fluor® 555 (anti-mouse), Alexa Fluor® 488 (anti-rabbit) from Invitrogen™ at 1:1000 dilution. Coverslips were then mounted using DAPI (4′,6-diamidino-2-phenylindole)-supplemented mounting medium, ProLong™ Gold Antifade (Invitrogen™) and imaged with Leica DMI6000 epifluorescent microscope using oil immersion 63×/NA 1.4 objective. The quantification for total protein levels in neurons was done using ImageJ (version 1.53c), and imaging parameters were matched for exposure, gain, and offset.

[2] = target: T1, interaction of eEF2 with TyrRS and PP2A (Rattus norvegicus, UniProt Q4KM49); assay: eEF2 immunoprecipitation probed for PP2A and TyrRS; type: cell-based; conditions: compound alone
T1 construct: endogenous in cells; host or cells: primary rat (E18 Sprague Dawley) cortical neurons
T1 sequence (Q4KM49 1-528): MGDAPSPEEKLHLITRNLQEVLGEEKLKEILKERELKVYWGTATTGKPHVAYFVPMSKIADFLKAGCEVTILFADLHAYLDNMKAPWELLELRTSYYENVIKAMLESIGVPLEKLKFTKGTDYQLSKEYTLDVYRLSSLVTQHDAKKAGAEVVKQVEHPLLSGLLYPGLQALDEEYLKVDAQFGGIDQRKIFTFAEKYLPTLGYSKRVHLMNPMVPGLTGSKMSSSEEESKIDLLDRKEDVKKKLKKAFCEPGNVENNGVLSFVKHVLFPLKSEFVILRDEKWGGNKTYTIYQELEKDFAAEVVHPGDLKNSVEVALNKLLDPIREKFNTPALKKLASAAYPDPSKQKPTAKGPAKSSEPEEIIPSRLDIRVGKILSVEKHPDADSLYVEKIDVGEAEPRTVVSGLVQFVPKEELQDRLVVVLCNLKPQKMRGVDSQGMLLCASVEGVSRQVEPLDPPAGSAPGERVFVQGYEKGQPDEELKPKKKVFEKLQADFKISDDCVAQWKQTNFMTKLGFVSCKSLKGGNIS
Description: Immunoprecipitated eEF2 was probed for its interaction with PP2A and TyrRS using their specific antibodies.

8-oxo-dG = 8-oxo-dG immunofluorescence in cortical neurons; type: cell-based, rat; conditions: for 8-oxo-dG (oxidative DNA damage marker): compound alone
Procedure: as §2

neuronal chromatin = assay: Chromatin fraction immunoblots of cortical neurons; type: cell-based, rat; conditions: compound alone
Procedure: as §1

cortical neurons = assay: Comet assay; type: cell-based, rat; conditions: for DNA damage, percentage (%) of DNA in the comet tail: compound alone
Procedure: The cells were harvested with a cell scraper using chilled PBS and counted. The comet assay (Trevigen®, Gaithersburg, MD) was performed according to standard methods using alkaline conditions. Electrophoresis was carried out at the rate of 1.0 V/cm for 20 min. The slides were removed from the electrophoresis chamber, washed twice in deionized water for 5 min and immersed in 70% ethanol for 5 min. Subsequently, the slides were dried at 37° C. for 30 min, DNA was stained with 50 μL of SYBR™ Gold dye (Fisher Scientific, 1:10000 in Tris-EDTA buffer, pH 7.5) for 20 min in the dark at room temperature and then analyzed using an epifluorescent microscope at 10× magnification. The images were scored for comet parameters, such as tail length and tail moment (product of % of DNA in the tail and tail length), using the TriTek CometScore™ Freeware v1.5 image analysis software.

| SMILES | histone H3 serine-ADP-ribosylation [1] | interaction of eEF2 with TyrRS and PP2A [2] | PARylated proteins in the chromatin fraction (neuronal chromatin) | association of PARP1 with the chromatin (neuronal chromatin) | recruitment of ARH3 to the chromatin (neuronal chromatin) | recruitment of PARP2, HPF1 and OGG1 to the chromatin (neuronal chromatin) | DNA damage, percentage (%) of DNA in the comet tail (cortical neurons) | γ-H2AX (DNA damage marker) (γ-H2AX) | 8-oxo-dG (oxidative DNA damage marker) (8-oxo-dG) | other results |
| --- | --- | --- | --- | --- | --- | --- | --- | --- | --- | --- |
| Oc1ccc(/C=C\c2cc(O)cc(O)c2)cc1 [cis-RSV, cis-resveratrol] | stimulated serine-ADP-ribosylation | facilitated the interaction of eEF2 with TyrRS and PP2A | activated the de-ADP-ribosylation of the chromatin fraction | resulted in its removal from the chromatin | differential effects on the recruitment of ARH3 to the chromatin | facilitated the recruitment of PARP2 along with other DNA repair factors such as HPF1 and OGG1 to the chromatin | did not cause an increase in percentage of DNA in the comet tail | – | – | PheRSβ and PheRSα levels (PheRSα/β; low concentration cis-RSV): increased their levels; γ-H2AX levels (γ-H2AX; added after 12 hr of tyrosine pretreatment): reduced γ-H2AX levels; effect on tyrosine-induced accumulation of γ-H2AX (γ-H2AX; combination with tyrosine): rescued tyrosine-induced accumulation of γ-H2AX and 8-oxo-dG; γ-H2AX levels after ETO-mediated DNA damage (γ-H2AX; with etoposide (ETO)): decreased levels of γ-H2AX; effect on tyrosine-induced accumulation of 8-oxo-dG (8-oxo-dG; combination with tyrosine): rescued tyrosine-induced accumulation of γ-H2AX and 8-oxo-dG; TyrRS in the chromatin fraction (neuronal chromatin): higher levels of TyrRS; recruitment of FEN1 to the chromatin (neuronal chromatin): decreased the recruitment of FEN1; effect on DNA damage caused by Tyr (cortical neurons; combination with Tyr): attenuated the increase in DNA damage caused by Tyr |
| Oc1ccc(/C=C/c2cc(O)cc(O)c2)cc1 [trans-RSV, trans-resveratrol] | inhibiting histone H3 serine-ADP-ribosylation | decreased their interactions | increased the levels of PARylated proteins in the chromatin fraction | increased the association of PARP1 with the chromatin | differential effects on the recruitment of ARH3 to the chromatin | prevented their recruitment | significantly increased DNA damage | caused the accumulation of γ-H2AX and 8-oxo-dG | caused the accumulation of γ-H2AX and 8-oxo-dG | PheRSα levels (PheRSα/β; high concentration trans-RSV): decreased PheRSβ, not PheRSα levels; PheRSβ levels (PheRSα/β; high concentration trans-RSV): decreased PheRSβ |
| N[C@@H](Cc1ccc(O)cc1)C(=O)O [tyrosine, L-tyrosine] | inhibiting histone H3 serine-ADP-ribosylation | decreased their interactions | – | trapping of PARP1 | – | – | significantly increased DNA damage | accumulation of γ-H2AX foci | resulted in the accumulation | PheRSβ levels (PheRSα/β; compound alone): depleted PheRSβ; levels of PheRSβ (PheRSα/β; second statement of the same sentence, see doubts): did not affect the levels of PheRSβ |
